Test systems include T-47D breast; SK-MEL-5 melanoma; RPMI-8226 leukemia; MCF7 breast; BT-549 breast; NCI-H522 lung; 786-0 renal; TK-10 renal; NCI-H23 lung; A498 renal.
Assay in all cases: DTP human tumour cell line panel, 48 h

This is an account of results in PubChem BioAssay (NCI).

One may read the GI50 as the concentration that inhibits growth by half. In general, TGI refers to the concentration giving total growth inhibition.

Values joined by “and” are separate entries in the source; they are usually repeats but may differ in a detail not shown here. Equal entries are not always repeated.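 Interpolation was linear, between the two tested concentrations surrounding the appropriate level; five concentrations were tested over 48 hours in 96-well plates. GI50 marks 50% less growth. The concentration for full growth arrest is given as TGI.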

`COc1ccc(/C(C)=C(\c2ccc(Cl)cc2)c2ccc(OCCN3CCCCC3)cc2)cc1F`: the GI50 in the experiment with T-47D breast is 4.25 µM; in the experiment on SK-MEL-5 melanoma, 2.76 µM; with RPMI-8226 leukemia, 3.49 µM; in the experiment with MCF7 breast, 3.34 µM; in the experiment on BT-549 breast, 3.11 µM; in the experiment with NCI-H522 lung, 3.54 µM. The GI50 with 786-0 renal was 2.69 µM; in the experiment on TK-10 renal, 3.49 µM; with NCI-H23 lung, 2.78 µM. Besides, the TGI with T-47D breast is 14.5 µM; in the experiment with SK-MEL-5 melanoma, 5.1 µM; in the experiment on RPMI-8226 leukemia it was 8.49 µM; with MCF7 breast it was 8.24 µM; in the experiment on BT-549 breast, 7.47 µM; with NCI-H522 lung, 7.94 µM. In addition, the TGI in the experiment with 786-0 renal was found to be 5.3 µM; with TK-10 renal, 9.12 µM; with NCI-H23 lung, 7.09 µM.
In the case of `COc1cccc2c1C(=N)c1c(O)c3c(c(O)c1C2=O)C[C@@](O)(C(C)=O)C[C@@H]3OC1CC(N)C(O)C(C)O1` (some centres not stated), the GI50 in the experiment with T-47D breast was 0.0174 µM; in the experiment with BT-549 breast it was 1.66 µM; in the experiment with 786-0 renal it was 0.0766 µM; in the experiment on TK-10 renal it was 0.234 µM. Moreover, the concentration for total growth inhibition (TGI) with T-47D breast was 4.86 µM; with SK-MEL-5 melanoma, 1.55 µM and 1.74 µM and 1.98 µM; with MCF7 breast, 24.8 µM and 13.4 µM; in the experiment with BT-549 breast, 16.2 µM; in the experiment with NCI-H522 lung, 2.4 µM and 1.13 µM and 1.91 µM; with A498 renal, 3.06 µM and 6.52 µM and 1.88 µM. Also, the concentration for total growth inhibition (TGI) in the experiment on TK-10 renal is 3.7 µM and 2.02 µM; with NCI-H23 lung, 0.607 µM and 1.62 µM and 1.2 µM.
As to `Oc1c(Br)cc(Br)c2cccnc12`, the GI50 is 3.03 µM with T-47D breast; 2.09 µM in the experiment on SK-MEL-5 melanoma; 3.45 µM with RPMI-8226 leukemia; 4.48 µM in the experiment on MCF7 breast; 4 µM with BT-549 breast; 2.52 µM with 786-0 renal. Besides, the results for the GI50 in the experiment on A498 renal, in the experiment with TK-10 renal and in the experiment on NCI-H23 lung were 2.03 µM, 14.2 µM and 3.56 µM, respectively. The TGI in the experiment on T-47D breast is 18.4 µM; in the experiment with SK-MEL-5 melanoma, 5.19 µM; in the experiment on RPMI-8226 leukemia, 24.8 µM; with MCF7 breast it was greater than 100 µM; in the experiment on BT-549 breast, greater than 100 µM; with 786-0 renal it was 5.91 µM. In addition, the concentration for total growth inhibition (TGI) was 11.5 µM in the experiment with A498 renal, greater than 100 µM in the experiment with TK-10 renal and 23.6 µM in the experiment with NCI-H23 lung.
In the case of `COC(=O)c1cc2c([nH]c3ccccc32)c(-c2nc3cc(N(S(=O)(=O)c4ccc(C)cc4)S(=O)(=O)c4ccc(C)cc4)c(OC)cc3cc2CO)n1`, the GI50 was greater than 100 µM in the experiment with T-47D breast; greater than 100 µM with SK-MEL-5 melanoma; greater than 100 µM in the experiment on MCF7 breast; greater than 100 µM with BT-549 breast; greater than 100 µM with NCI-H522 lung; 32.1 µM in the experiment on 786-0 renal. Also, the GI50 in the experiment on A498 renal, with TK-10 renal and in the experiment on NCI-H23 lung was greater than 100 µM in each case. Moreover, the TGI with T-47D breast was greater than 100 µM; in the experiment on SK-MEL-5 melanoma, greater than 100 µM; in the experiment on MCF7 breast, greater than 100 µM; in the experiment with BT-549 breast, greater than 100 µM; in the experiment on NCI-H522 lung it was greater than 100 µM; in the experiment on 786-0 renal it was 87.8 µM. In addition, the TGI with A498 renal, in the experiment with TK-10 renal and in the experiment on NCI-H23 lung was greater than 100 µM in each case.
Take `Nc1cc2[nH]c(=O)c3cc(Cl)ccc3c2cc1Cl`: the total growth inhibition concentration (TGI) with T-47D breast was greater than 100 µM; in the experiment with SK-MEL-5 melanoma, 27 µM; in the experiment on RPMI-8226 leukemia, greater than 100 µM; with MCF7 breast, 13.8 µM; with BT-549 breast, greater than 100 µM; in the experiment with NCI-H522 lung it was 33 µM. Also, the TGI in the experiment with 786-0 renal was greater than 100 µM; with TK-10 renal, 33.7 µM; with NCI-H23 lung, 72.5 µM.
In the case of `CCCC1C2=C(C(=O)OC2=O)C2C(CC)CC3=C(C(=O)OC3=O)C12` (configuration not stated), the concentration for total growth inhibition (TGI) in the experiment with T-47D breast, with SK-MEL-5 melanoma, with RPMI-8226 leukemia, with MCF7 breast, with BT-549 breast and in the experiment on 786-0 renal was greater than 100 µM throughout. The TGI with A498 renal, with TK-10 renal and with NCI-H23 lung was greater than 100 µM each time.
`N#Cc1c(-c2ccc(Cl)cc2)n([O-])c2ccccc2[n+]1=O`: the GI50 was 6.47 µM in the experiment on T-47D breast; 15.9 µM in the experiment with SK-MEL-5 melanoma; 1.99 µM with RPMI-8226 leukemia; 15.9 µM in the experiment with MCF7 breast; 23.2 µM in the experiment with BT-549 breast; 14.7 µM with NCI-H522 lung. In addition, the GI50 in the experiment on 786-0 renal was 12.5 µM; in the experiment on TK-10 renal it was 11.7 µM; in the experiment with NCI-H23 lung, 16.2 µM. In addition, the TGI was 25.8 µM in the experiment with T-47D breast; 31.7 µM in the experiment with SK-MEL-5 melanoma; 5.11 µM in the experiment on RPMI-8226 leukemia; greater than 100 µM in the experiment on MCF7 breast; 52.3 µM in the experiment on BT-549 breast; 38.5 µM with NCI-H522 lung. For the same compound, the results for the total growth inhibition concentration (TGI) with 786-0 renal, with TK-10 renal and in the experiment with NCI-H23 lung were 25 µM, 24.6 µM and 31.3 µM, respectively.
